In patent US12049467B2 (The Johns Hopkins University, priority 2021, dated 2024):

Biological target: T1, GABAA (α3β2γ2) subtype (Homo sapiens, UniProt P18507+P34903)
T1 construct: expressed in transfected cells
Experiment: Automated patch-clamp (QPatch) modulation of GABA-activated currents in cells stably transfected with GABAA (α3β2γ2) channels
Format: cell-based
Conditions: stably transfected Ltk cells, 2.0 μM GABA (submaximal), whole-cell patch, holding potential −80 mV; Emax = upper asymptote of dose-response fit
Description: Modulatory effects of the compounds of this disclosure were investigated using cells stably transfected with GABA-activated channels of the GABAA (α3β2γ2) subtype together with submaximal GABA concentrations. Expression of GABA receptor were induced by adding Dexamethasone to the cells for 24 to 48 h before experimentation. In general, cells were passaged at a confluence of about 80 to 90%. For electrophysiological measurements cells were harvested at a confluence of about 80 to 90% from sterile culture flasks containing culture complete medium. Cells were transferred as suspension in PBS to the QPatch 16X or QPatch HTX system to the centrifuge/washer directly. Cells were incubated at 37° C. in a humidified atmosphere with 5% CO2 (rel. humidity about 95%). The cells were continuously maintained in and passaged in sterile culture flasks containing a 1:1 mixture of Dulbecco's modified eagle medium and nutrient mixture D-MEM/F-12 (1×, liquid, with L-Glutamine), supplemented with 10% foetal bovine serum and 1.0% Penicillin/Streptomycin solution and neomycin. The 1× bath solution was made at least every 5 days out of a sterile lox bath solution, which had been prepared prior to the experimental start of the present study and stored at 1° C. to 9° C. The final bath solution included Sodium Chloride 137 mM, Potassium Chloride 4 mM, Calcium Chloride 1.8 mM, Magnesium Chloride 1 mM, HEPES 10 mM, D-Glucose 10 mM, pH (NaOH) 7.4. The 1× intracellular solution was thawed every day and includes Potassium Chloride 130 mM, Magnesium Chloride 1 mM, Mg-ATP 5 mM, HEPES 10 mM, EGTA 5 Mm, pH (KOH) 7.2. Automated patch-clamping: Cells were transferred as suspension in serum-free medium to the QPatch HTX system and kept in the cell storage tank during experiments. All solutions applied to cells including the intracellular solution were maintained at room temperature (19° C. to 30° C.). After formation of a Gigaohm seal between the patch electrodes and transfected individual Ltk cells were ruptured to assure electrical access to the cell interior (whole-cell patch-configuration). Inward currents were measured upon application of 2.0 μM GABA to patch-clamped cells for 4 s. During the entire experiment the cells were voltage-clamped at a holding potential of −80 mV. For the analysis of test items, GABAA receptors were stimulated by 2.0 μM GABA and test item combinations described below. Thirty-second prewash steps with test items was performed in between two agonist applications. The dose-response curve was fit with a sigmoidal three parameter equation current=Emax/1+10^((Log EC50−X)*H) where X is the compound concentration, Emax the upper asymptote, EC50 the concentration of test item at half maximal effect, and H is the Hill coefficient. SigmaPlot 11.0 was used for construction of curve.

T1 sequence (P34903 29-492): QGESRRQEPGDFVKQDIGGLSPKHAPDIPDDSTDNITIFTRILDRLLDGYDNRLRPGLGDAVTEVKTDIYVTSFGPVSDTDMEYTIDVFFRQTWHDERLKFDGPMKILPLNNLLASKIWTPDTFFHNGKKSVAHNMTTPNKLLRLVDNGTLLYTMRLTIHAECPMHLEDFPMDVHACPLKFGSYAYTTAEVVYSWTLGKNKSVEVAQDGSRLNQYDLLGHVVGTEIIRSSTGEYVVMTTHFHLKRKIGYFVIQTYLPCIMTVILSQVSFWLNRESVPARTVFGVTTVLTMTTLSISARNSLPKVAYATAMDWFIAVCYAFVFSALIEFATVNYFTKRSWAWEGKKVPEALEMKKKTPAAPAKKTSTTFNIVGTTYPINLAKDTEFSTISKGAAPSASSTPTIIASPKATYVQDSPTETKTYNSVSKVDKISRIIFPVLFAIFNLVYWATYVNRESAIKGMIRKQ
T1 sequence (P47870 25-512 partner limits assumed): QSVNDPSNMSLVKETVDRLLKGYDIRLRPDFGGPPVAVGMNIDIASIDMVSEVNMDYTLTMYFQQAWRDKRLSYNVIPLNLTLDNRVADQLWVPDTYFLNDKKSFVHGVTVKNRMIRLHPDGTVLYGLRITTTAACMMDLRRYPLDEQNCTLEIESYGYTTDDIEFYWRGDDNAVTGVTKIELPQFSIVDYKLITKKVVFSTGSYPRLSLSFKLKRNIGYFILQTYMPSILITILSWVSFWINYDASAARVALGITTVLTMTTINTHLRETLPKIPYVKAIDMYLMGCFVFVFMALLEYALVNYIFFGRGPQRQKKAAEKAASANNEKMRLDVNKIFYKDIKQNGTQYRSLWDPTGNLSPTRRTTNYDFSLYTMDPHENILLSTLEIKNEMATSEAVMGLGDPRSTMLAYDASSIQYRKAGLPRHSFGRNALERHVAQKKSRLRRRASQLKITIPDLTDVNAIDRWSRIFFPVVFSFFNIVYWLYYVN
T1 sequence (P18507 40-475): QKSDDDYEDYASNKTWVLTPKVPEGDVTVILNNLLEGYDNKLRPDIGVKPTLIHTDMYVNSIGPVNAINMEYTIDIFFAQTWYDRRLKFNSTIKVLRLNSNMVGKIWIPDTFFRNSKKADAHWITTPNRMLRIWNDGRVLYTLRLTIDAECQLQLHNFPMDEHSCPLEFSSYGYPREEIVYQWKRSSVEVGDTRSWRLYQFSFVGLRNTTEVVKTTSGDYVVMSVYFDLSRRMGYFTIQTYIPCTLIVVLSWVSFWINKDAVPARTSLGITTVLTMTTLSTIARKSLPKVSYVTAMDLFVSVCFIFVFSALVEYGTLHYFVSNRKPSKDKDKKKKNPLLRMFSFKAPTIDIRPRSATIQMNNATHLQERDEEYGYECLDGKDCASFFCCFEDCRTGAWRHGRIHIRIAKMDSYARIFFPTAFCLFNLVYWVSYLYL

Row | Compound | Emax
1 | O=C(O)c1cc2n(n1)-c1ccc(Cl)cc1C(c1ccccc1F)=NC2 [Example 1, 8-chloro-6-(2-fluorophenyl)-4H-pyrazolo[1,5-a][1,4]benzodiazepine-2-carboxylic acid] | > 100%
2 | C#Cc1ccc2c(c1)C(c1ccccc1F)=NCc1cc(C(=O)O)nn1-2 [Example 2, 8-ethynyl-6-(2-fluorophenyl)-4H-pyrazolo[1,5-a][1,4]benzodiazepine-2-carboxylic acid] | > 100%
3 | O=C(O)c1cc2n(n1)-c1ccc(C3CC3)cc1C(c1ccccc1F)=NC2 [Example 3, 8-cyclopropyl-6-(2-fluorophenyl)-4H-pyrazolo[1,5-a][1,4]benzodiazepine-2-carboxylic acid] | > 100%
4 | Cc1ccc2c(c1)C(c1ccccc1F)=NCc1cc(C(=O)O)nn1-2 [Example 4, 6-(2-fluorophenyl)-8-methyl-4H-pyrazolo[1,5-a][1,4]benzodiazepine-2-carboxylic acid] | > 100%
5 | O=C(O)c1cc2n(n1)-c1ccccc1C(c1ccccc1F)=NC2 [Example 5, 6-(2-fluorophenyl)-4H-pyrazolo[1,5-a][1,4]benzodiazepine-2-carboxylic acid] | < 50%
6 | O=C(O)c1cc2n(n1)-c1ccc(-c3ccccc3)cc1C(c1ccccc1F)=NC2 [Example 6, 6-(2-fluorophenyl)-8-phenyl-4H-pyrazolo[1,5-a][1,4]benzodiazepine-2-carboxylic acid] | < 50%
7 | O=C(O)c1cc2n(n1)-c1ccc(Br)cc1C(c1ccccc1F)=NC2 [Example 7, 8-bromo-6-(2-fluorophenyl)-4H-pyrazolo[1,5-a][1,4]benzodiazepine-2-carboxylic acid] | > 100%
8 | C[Si](C)(C)c1ccc2c(c1)C(c1ccccc1F)=NCc1cc(C(=O)O)nn1-2 [Example 8, 6-(2-fluorophenyl)-8-trimethylsilyl-4H-pyrazolo[1,5-a][1,4]benzodiazepine-2-carboxylic acid] | < 50%
9 | O=C(O)c1cc2n(n1)-c1ccc(SC(F)(F)F)cc1C(c1ccccc1F)=NC2 [Example 9, 6-(2-fluorophenyl)-8-(trifluoromethylsulfanyl)-4H-pyrazolo[1,5-a][1,4]benzodiazepine-2-carboxylic acid] | > 100%
10 | O=C(O)c1cc2n(n1)-c1ccc(C(F)(F)F)cc1C(c1ccccc1F)=NC2 [Example 10, 6-(2-fluorophenyl)-8-(trifluoromethyl)-4H-pyrazolo[1,5-a][1,4]benzodiazepine-2-carboxylic acid] | > 100%
11 | O=C(O)c1cc2n(n1)-c1ccc(OC(F)(F)F)cc1C(c1ccccc1F)=NC2 [Example 11, 6-(2-fluorophenyl)-8-(trifluoromethoxy)-4H-pyrazolo[1,5-a][1,4]benzodiazepine-2-carboxylic acid] | > 100%
12 | O=C(O)c1cc2n(n1)-c1cc(Cl)ccc1C(c1ccccc1F)=NC2 [Example 12] | < 50%
13 | O=C(O)c1cc2n(n1)-c1ccc(Cl)cc1C(c1ccccc1Br)=NC2 [Example 13, 6-(2-bromophenyl)-8-chloro-4H-pyrazolo[1,5-a][1,4]benzodiazepine-2-carboxylic acid] | > 100%
14 | O=C(O)c1cc2n(n1)-c1ccc(Cl)cc1C(c1c(F)cccc1F)=NC2 [Example 14, 8-chloro-6-(2,6-difluorophenyl)-4H-pyrazolo[1,5-a][1,4]benzodiazepine-2-carboxylic acid] | 51 to 100%
15 | O=C(O)c1cc2n(n1)-c1ccc(Cl)cc1C(c1ccccc1Cl)=NC2 [Example 15, 8-chloro-6-(2-chlorophenyl)-4H-pyrazolo[1,5-a][1,4]benzodiazepine-2-carboxylic acid] | > 100%
16 | O=C(O)c1cc2n(n1)-c1ccc(Cl)cc1C(c1cccc(F)c1F)=NC2 [Example 16] | > 100%
17 | O=C(O)c1cnn2c1CN=C(c1ccccc1F)c1cc(Cl)ccc1-2 [Example 17, 12-Chloro-9-(2-fluorophenyl)-2,3,8-triazatricyclo[8.4.0.0^2,6]tetradeca-1(10),3,5,8,11,13-hexaene-5-carboxylic Acid] | > 100%
18 | Cc1ccc2c(c1)C(c1ccccc1F)=NCc1c(C(=O)O)cnn1-2 [Example 18, 6-(2-fluorophenyl)-8-methyl-4H-pyrazolo[1,5-a][1,4]benzodiazepine-3-carboxylic acid] | > 100%
19 | Cc1c(C(=O)O)nn2c1CN=C(c1ccccc1F)c1cc(Cl)ccc1-2 [Example 19, 12-Chloro-9-(2-fluorophenyl)-5-methyl-2,3,8-triazatricyclo[8.4.0.0^2,6]tetradeca-1(10),3,5,8,11,13-hexaene-4-carboxylic Acid] | > 100%
20 | CC1N=C(c2ccccc2F)c2cc(Cl)ccc2-n2nc(C(=O)O)cc21 (centres unmarked) [Example 20, 12-Chloro-9-(2-fluorophenyl)-7-methyl-2,3,8-triazatricyclo[8.4.0.0^2,6]tetradeca-1(10),3,5,8,11,13-hexaene-4-carboxylic acid] | > 100%
21 | O=C(O)c1nn2c(c1Br)CN=C(c1ccccc1F)c1cc(Cl)ccc1-2 [Example 21, 3-bromo-8-chloro-6-(2-fluorophenyl)-4H-pyrazolo[1,5-a][1,4]benzodiazepine-2-carboxylic Acid] | > 100%
22 | O=C(O)c1nn2c(c1Cl)CN=C(c1ccccc1F)c1cc(Cl)ccc1-2 [Example 22, 3,8-dichloro-6-(2-fluorophenyl)-4H-pyrazolo[1,5-a][1,4]benzodiazepine-2-carboxylic acid] | 51 to 100%
23 | O=C(O)c1cc2n(n1)-c1ccc(Cl)cc1C(c1ccccc1F)=[N+]([O-])C2 [Example 23, 8-chloro-6-(2-fluorophenyl)-5-oxido-4H-pyrazolo[1,5-a][1,4]benzodiazepin-5-ium-2-carboxylic Acid] | > 100%
24 | O=C(O)c1cc2n(n1)-c1ccc(Cl)cc1C(c1ccccc1F)=NC2O (centres unmarked) [Example 24, 8-chloro-6-(2-fluorophenyl)-4-hydroxy-4H-benzo[f]pyrazolo[1,5-a][1,4]diazepine-2-carboxylic Acid] | < 50%
25 | NC(=O)NCCNC(=O)c1cc2n(n1)-c1ccc(Cl)cc1C(c1ccccc1F)=NC2 [Example 25, 8-chloro-6-(2-fluorophenyl)-N-(2-ureidoethyl)-4H-benzo[f]pyrazolo[1,5-a][1,4]diazepine-2-carboxamide] | 51 to 100%
26 | NC(=O)NCCNC(=O)c1cnn2c1CN=C(c1ccccc1F)c1cc(Cl)ccc1-2 [Example 26, 8-chloro-6-(2-fluorophenyl)-N-(2-ureidoethyl)-4H-pyrazolo[1,5-a][1,4]benzodiazepine-3-carboxamide] | > 100%
27 | NS(=O)(=O)NCCNC(=O)c1cc2n(n1)-c1ccc(Cl)cc1C(c1ccccc1F)=NC2 [Example 27, 8-chloro-6-(2-fluorophenyl)-N-[2-(sulfamoylamino)ethyl]-4H-pyrazolo[1,5-a][1,4]benzodiazepine-2-carboxamide] | 51 to 100%
28 | NS(=O)(=O)NCCNC(=O)c1cnn2c1CN=C(c1ccccc1F)c1cc(Cl)ccc1-2 [Example 28, 8-chloro-6-(2-fluorophenyl)-N-[2-(sulfamoylamino)ethyl]-4H-pyrazolo[1,5-a][1,4]benzodiazepine-3-carboxamide] | > 100%
29 | O=C(O)c1cc2n(n1)-c1ccc(Cl)cc1C(c1ccccc1)=NC2 [Example 29, 8-chloro-6-phenyl-4H-benzo[f]pyrazolo[1,5-a][1,4]diazepine-2-carboxylic acid] | > 100%
